# Measured values: ChEMBL document CHEMBL3286100, “Synthesis and β-glucuronidase inhibitory activity of 2-arylquinazolin-4(3H)-ones” (Bioorg Med Chem, 2014)
# Tests used:
# [1] = target: T1, Beta-glucuronidase (Homo sapiens, UniProt P08236); experiment: Inhibition of beta-glucuronidase activity (unknown origin) assessed as p-nitrophenol formation after 30 mins using p-nitrophenyl-beta-D-glucuronide as substrate by spectrophotometry
# T1 sequence (P08236 whole entry): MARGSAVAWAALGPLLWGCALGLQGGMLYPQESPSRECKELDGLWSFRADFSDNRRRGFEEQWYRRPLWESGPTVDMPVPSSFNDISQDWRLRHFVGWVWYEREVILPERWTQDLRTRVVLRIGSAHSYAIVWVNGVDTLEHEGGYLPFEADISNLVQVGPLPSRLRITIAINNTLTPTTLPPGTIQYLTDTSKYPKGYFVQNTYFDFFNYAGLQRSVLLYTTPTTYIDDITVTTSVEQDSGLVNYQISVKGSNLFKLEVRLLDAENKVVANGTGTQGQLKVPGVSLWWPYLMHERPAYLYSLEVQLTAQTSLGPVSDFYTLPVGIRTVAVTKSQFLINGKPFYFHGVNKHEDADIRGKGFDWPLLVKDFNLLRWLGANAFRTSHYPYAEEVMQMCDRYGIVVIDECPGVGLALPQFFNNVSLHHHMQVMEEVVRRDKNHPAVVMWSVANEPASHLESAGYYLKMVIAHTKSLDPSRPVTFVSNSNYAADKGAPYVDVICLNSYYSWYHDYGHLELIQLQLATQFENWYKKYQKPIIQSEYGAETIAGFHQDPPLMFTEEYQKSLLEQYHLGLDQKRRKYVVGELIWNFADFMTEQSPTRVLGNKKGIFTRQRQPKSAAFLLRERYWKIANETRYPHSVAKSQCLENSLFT
# [2] = tested on: PC-3; experiment: cells; conditions: Homo sapiens, PC-3, 72 h
# Description: Cytotoxicity against human PC3 cells after 72 hrs by MTT assay
structure (smiles),measurement,setting,value
O=c1[nH]c(-c2ccc([N+](=O)[O-])cc2)nc2ccccc12,IC50,[1],20.1 µM
same,IC50,[2],> 30 µM
O=c1[nH]c(-c2c(Cl)cccc2Cl)nc2ccccc12,IC50,[2],> 30 µM
CCOc1ccccc1-c1nc2ccccc2c(=O)[nH]1,IC50,[2],> 30 µM
COc1ccc(-c2nc(O)c3ccccc3n2)cc1OC,IC50,[2],> 30 µM
COc1ccc(O)c(-c2nc3ccccc3c(=O)[nH]2)c1,IC50,[2],> 30 µM
COc1ccc(-c2nc3ccccc3c(=O)[nH]2)cc1O,IC50,[1],2.8 µM
same,IC50,[2],> 30 µM
Cc1ccc(-c2nc3ccccc3c(=O)[nH]2)cc1,IC50,[1],173 µM
same,IC50,[2],> 30 µM
O=c1[nH]c(-c2c(O)cccc2Br)nc2ccccc12,IC50,[2],> 30 µM
CCOc1ccc(-c2nc3ccccc3c(=O)[nH]2)cc1,IC50,[2],> 30 µM
O=c1[nH]c(-c2cccc(O)c2)nc2ccccc12,IC50,[1],198 µM
same,IC50,[2],> 30 µM
O=c1[nH]c(-c2ccccc2Cl)nc2ccccc12,IC50,[2],> 30 µM
O=c1[nH]c(-c2ccc(Cl)cc2Cl)nc2ccccc12,IC50,[2],> 30 µM
CCOc1cc(-c2nc3ccccc3c(=O)[nH]2)ccc1O,IC50,[2],> 30 µM
COc1ccc(-c2nc3ccccc3c(=O)[nH]2)cc1,IC50,[1],1.1 µM
same,IC50,[2],> 30 µM
O=c1[nH]c(-c2ccc(O)c(O)c2)nc2ccccc12,IC50,[2],> 30 µM
O=c1[nH]c(-c2ccccc2[N+](=O)[O-])nc2ccccc12,IC50,[2],> 30 µM
O=c1[nH]c(-c2ccc(Cl)cc2)nc2ccccc12,IC50,[2],> 30 µM
O=c1[nH]c(-c2ccccc2O)nc2ccccc12,IC50,[1],10 µM
same,IC50,[2],> 30 µM
O=c1[nH]c(-c2cccc([N+](=O)[O-])c2)nc2ccccc12,IC50,[1],50.4 µM
same,IC50,[2],> 30 µM
O=c1[nH]c(-c2ccc(O)cc2)nc2ccccc12,IC50,[1],22.2 µM
same,IC50,[2],> 30 µM
COc1cccc(-c2nc3ccccc3c(=O)[nH]2)c1O,IC50,[2],> 30 µM
O=c1[nH]c(-c2cc(O)ccc2O)nc2ccccc12,IC50,[2],> 30 µM
CN(C)c1ccc(-c2nc(O)c3ccccc3n2)cc1,IC50,[1],5.5 µM
same,IC50,[2],> 30 µM
COc1cc(-c2nc3ccccc3c(=O)[nH]2)cc(OC)c1OC,IC50,[1],120 µM
same,IC50,[2],> 30 µM
